“Also recorded” adds a separate entry of the source.
What was measured:
[1] = system: S. aureus (ATCC 25923) biofilm; test: Inhibition of biofilm formation (crystal violet); format: cell-based; settings: Staphylococcus aureus, ATCC25923, alone at 0.2 µg mL−1, 48 h, 37 °C, A600, triplicate
Procedure: The assay was made in flat-bottom 96-well polystyrene microplates as described by Bezerra et al.. The cell suspension was prepared using a single colony of S. aureus from a Petri dish with Mueller–Hinton broth (stock bacteria). The colony was transferred to Mueller–Hinton broth and incubated at 37 ℃ for 24 h. After, the cell suspension was standardized to a concentration of 10^6 cells mL^−1. […] The combination of peptide and antibiotic was made from the highest concentration of the peptide combined with the lowest antibiotic concentration and vice versa. After the incubation period, the supernatant was removed carefully from each well and washed one time with sterile NaCl 0.15 M solution. […] The absorbances were obtained via a microplate reader (BioTek^TM Epoch, BioTek Instruments, Inc., Winooski, VT, USA) at 600 nm. The experiment was repeated three times.

S. aureus biofilm cells = test: ROS overproduction (DCFH-DA, fluorescence microscopy); settings: ciprofloxacin alone at 6.2, 0.2, 25 or 0.02 µg mL−1 (Figures 4 and 5)
[2] = system: S. aureus (ATCC 25923) preformed biofilm; test: Reduction of preformed biofilm mass (crystal violet); format: cell-based, Staphylococcus aureus
Procedure: After the incubation period, the supernatant was removed carefully from each well and washed one time with sterile NaCl 0.15 M solution. […] The absorbances were obtained via a microplate reader (BioTek^TM Epoch, BioTek Instruments, Inc., Winooski, VT, USA) at 600 nm. The experiment was repeated three times. The assay to observe the preformed biofilm reduction was conducted the same as described above but with some adjustments. […] The microplates were incubated in the dark, at 37 ℃, for 24 h. After incubation, the biofilm was washed, dried, and stained, and absorbance was taken as above.

[3] = system: type-A human erythrocytes
[4] = system: type-O human erythrocytes
[5] = system: type-B human erythrocytes

Compound | inhibition at 0.2 µg/mL [1] [%] | ROS overproduction (S. aureus biofilm cells) | reduction of preformed biofilm ([2]; alone at 6.2 µg mL−1, 24 h biofilm, 24 h treatment, 37 °C, crystal violet, A600) [%] | reduction of preformed biofilm ([2]; alone at 25 µg mL−1) [%] | reduction of the biomass of preformed biofilm ([2]; ciprofloxacin alone at the Figure 1D concentrations (0.02, 0.39, 0.78, 6.2 µg mL−1)) | reduction of the biomass of preformed biofilm ([2]; each alone at the concentrations of the two Figure 1C combinations (RcAlb-PepI 0.04 and 0.2; ciprofloxacin 25 and 6.2 µg mL−1)) | % Hemolysis Type-A Blood [3] [%] | % Hemolysis Type-O Blood [4] [%] | % Hemolysis Type-B Blood [5] [%]
O=C(O)c1cn(C2CC2)c2cc(N3CCNCC3)c(F)cc2c1=O [Ciprofloxacin] | 10 | did not induce ROS; also recorded: not able to induce ROS accumulation | 0 | 8 | not effective | not effective | – | – | –
Triton X-100 | – | – | – | – | – | – | 100 ± 0.001 | 100 ± 0.005 | 100 ± 0.001

— article PMC9505254 (Pathogens, 2022)
